{
  "source": "patent US20210120808A1",
  "about": "“Methods and Systems for Synergistic Continuity Approaches to Treatment and Preservation of Biological Cells” (Membrane Protective Technologies, Inc., priority 2017, published 2021)",
  "test_system": "phospholipase A2",
  "experiment": "Egg yolk coagulation by goat seminal plasma in lactose yolk extender, image analysis with ImageJ",
  "format": "biochemical",
  "procedure": "An egg yolk extender was prepared substituting lactose (Trizma base 131.5 mM, Lactose 73 mM 40% v:v egg yolk), without citric acid and pH was adjusted to a standard extender pH of 7. Semen from […] was collected using an artificial vagina. The ejaculate was centrifuged for 5 min at 1000×g. The supernatant (seminal plasma) was removed, then 1 part seminal plasma was added to 1 part extender to create a 20% yolk solution. Extender was either lactose yolk extender alone or lactose yolk extender modified to contain the phospholipase inhibitor curcumin as found in Sea Buckthorn (see Gupta et al. Molecular and Cellular biochemistry October 2006 290:193, hereby incorporated by reference). Representative pictures were taken of each solution, then the 22° C. solutions of seminal plasma plus the various extenders were frozen to −80° C. and allowed to remain frozen for >24 hrs. Samples were thawed by incubation in 37° C. water bath for 1 minute, then representative pictures were taken. For each picture, the negative space (the white area visible between droplets) was measured using ImageJ software by adjusting the image threshold using “Auto” setting then analyzing particle size (see Rasband, W. S., ImageJ, U.S. National Institutes of Health, Bethesda, Md., USA, https://imagej.nih.gov/ij/, 1997-2018, hereby incorporated by reference). The mean particle size was recorded and the images were analyzed in triplicate. […] The left column is a non-limiting example of a pictorial representation of the lactose yolk solution without seminal plasma (control) pre-freezing and post-freezing. One observes that there is no significant change in the size of the egg yolk lipid droplets, and no coagulation has occurred.",
  "note": "Marks after values point to notes of the source that are not given here.",
  "data": [
    {"smiles": "COc1cc(/C=C/C(=O)CC(=O)/C=C/c2ccc(O)c(OC)c2)ccc1O", "note": "[curcumin]", "values": [
      {"measurement": "coagulation of egg yolk particles compared to Control", "setting": "area of coagulation, seminal plasma with vs without inhibitor, FIG. 8", "result": "statically significant decrease"},
      {"measurement": "Post-Thaw Area", "setting": "frozen to −80° C. >24 hrs, thawed at 37° C., single pygmy buck, p < 0.05", "result": "35.6* pixel^2"},
      {"measurement": "Pre-Freeze Area", "setting": "goat seminal plasma plus lactose yolk extender, 0.2% curcumin, single pygmy buck, p < 0.05", "result": "26.3* pixel^2"},
      {"measurement": "pre-freeze coagulation", "setting": "pre-freeze seminal plasma with 0.2% plant-derived curcumin vs without curcumin", "result": "less coagulated"},
      {"measurement": "Coagulation rank", "setting": "single pygmy buck, untreated seminal plasma ranks 2", "result": 1}
    ]}
  ]
}
